Consider twelve compounds from ChEMBL document CHEMBL1201862, “PubChem BioAssay data set” (2004).

Among the test systems are SK-MEL-28; COLO 205; LOX IMVI; HCT-15; MOLT-4; HCC 2998; NCI-H23; K562; HOP-92; A498; UACC-62; OVCAR-5; CCRF-CEM; OVCAR-4; SR; SF-539; U-251.
Holding throughout (experiment): inhibition of tumour cell growth, NCI panel, 48 h

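Briefly, cells in 96-well plates were exposed to five compound concentrations for 48 h, and endpoints were estimated by linear interpolation. GI50: concentration for 50% inhibition of growth.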 Active and inactive are the calls of the source. Cut-off read from the data, not from the text of the source: active = GI50 up to about 1.1 µM and inactive = higher.

For `COc1cccc(C=O)c1[O-].COc1cccc(C=O)c1[O-].[Zn+2]`, the GI50 is 76.7 µM (inactive) with SK-MEL-28; > 100 µM (inactive) in the test with COLO 205; 76.9 µM (inactive) in the test with LOX IMVI; 38 µM with HCT-15; 33.8 µM (inactive) in the test on MOLT-4; > 100 µM (inactive) in the test with HCC 2998. The GI50 is 79.3 µM (inactive) in the test on NCI-H23; 55.3 µM (inactive) in the test on K562; 21.9 µM (inactive) in the test on HOP-92; > 100 µM (inactive) with A498; 46.2 µM (inactive) in the test with UACC-62; 53.7 µM (inactive) with OVCAR-5. For the same compound, the GI50 is 28.9 µM (inactive) in the test on CCRF-CEM; 57.5 µM (inactive) with OVCAR-4; 35.6 µM (inactive) in the test on SR; 45.2 µM (inactive) in the test with SF-539; 38.4 µM (inactive) with U-251.

Regarding `O=C1NC(O)n2c(=O)[nH]c(=O)n21` (configuration not stated), the GI50 with SK-MEL-28 was > 100 µM (inactive); with COLO 205, > 100 µM (inactive); with LOX IMVI, > 100 µM (inactive); in the test with HCT-15 it was more than 100 µM; with MOLT-4, > 100 µM (inactive); with HCC 2998 it was > 100 µM (inactive). For the same compound, the GI50 in the test on NCI-H23, in the test with K562, in the test with HOP-92, in the test on UACC-62, with OVCAR-5 and in the test on CCRF-CEM was > 100 µM (inactive) each time. The GI50 with OVCAR-4, in the test on SR, with SF-539 and with U-251 was > 100 µM (inactive) in each case.

Take `COc1ccccc1C1c2cc3c(cc2OC(O)(CO)C1C(=O)O)OCO3.COc1ccccc1C1c2cc3c(cc2OC2(O)COC(=O)C12)OCO3` (configuration not stated): the GI50 is > 100 µM (inactive) in the test with SK-MEL-28; > 100 µM (inactive) in the test with COLO 205; > 100 µM (inactive) in the test on LOX IMVI; more than 100 µM with HCT-15; 70 µM (inactive) in the test on MOLT-4; > 100 µM (inactive) with HCC 2998. Further, the GI50 in the test on NCI-H23, with K562, with HOP-92, with A498, with UACC-62 and in the test on OVCAR-5 was > 100 µM (inactive) in each case. The GI50 was 92.7 µM (inactive) in the test with CCRF-CEM; > 100 µM (inactive) with OVCAR-4; > 100 µM (inactive) with SR; > 100 µM (inactive) in the test with SF-539; > 100 µM (inactive) with U-251.

Turning to `CCOC1C(Br)Cn2c(=O)c3cc4ccccc4cc3c(=O)n2C1C` (configuration not stated), the GI50 with SK-MEL-28 was > 100 µM (inactive); with COLO 205 it was 56.6 µM (inactive); in the test with LOX IMVI, 73.5 µM (inactive); in the test on HCT-15, 43.6 µM; with MOLT-4, 29.4 µM (inactive); in the test with HCC 2998 it was 50.6 µM (inactive). For the same compound, the GI50 in the test on NCI-H23 was > 100 µM (inactive); in the test with K562 it was 37.6 µM (inactive); with HOP-92, 97.7 µM (inactive); in the test on A498, 12.2 µM (inactive); with OVCAR-5 it was > 100 µM (inactive); with CCRF-CEM, 50.1 µM (inactive). For the same compound, the GI50 with OVCAR-4 is > 100 µM (inactive); with SR it was 34 µM (inactive); in the test on SF-539 it was > 100 µM (inactive); with U-251, > 100 µM (inactive).

`CCOC(=O)[C@H]1CSC[C@@H](C(=O)OC)N1`: the GI50 in the test on SK-MEL-28 was > 100 µM (inactive); in the test on COLO 205, > 100 µM (inactive); in the test with LOX IMVI it was > 100 µM (inactive); in the test on HCT-15, more than 100 µM; with MOLT-4, > 100 µM (inactive); with HCC 2998, > 100 µM (inactive). Further, the GI50 in the test on NCI-H23, in the test with K562, in the test with A498, in the test on UACC-62, with OVCAR-5 and in the test with CCRF-CEM was > 100 µM (inactive) in each case. In addition, the GI50 with OVCAR-4, in the test on SR and in the test on U-251 was > 100 µM (inactive) each time.

For `COc1ccc(C(=O)C(c2ccc(OC)cc2)C2(O)C(=O)Nc3ccc([N+](=O)[O-])cc32)cc1` (configuration not stated), the GI50 was > 100 µM (inactive) with SK-MEL-28; > 100 µM (inactive) in the test on COLO 205; more than 100 µM with HCT-15; > 100 µM (inactive) in the test with MOLT-4; > 100 µM (inactive) with NCI-H23; > 100 µM (inactive) in the test with K562. Moreover, the GI50 in the test on HOP-92 is 32.9 µM (inactive); with A498, 17.7 µM (inactive); in the test on UACC-62, > 100 µM (inactive); in the test with OVCAR-5, > 100 µM (inactive); with CCRF-CEM it was > 100 µM (inactive); in the test on OVCAR-4, > 100 µM (inactive). Also, the GI50 in the test with SR is 68.5 µM (inactive); in the test on SF-539 it was 11.3 µM (inactive); in the test with U-251, > 100 µM (inactive).

For `CCOC(=O)/C=C/c1ccccn1`, the GI50 with SK-MEL-28 was > 100 µM (inactive); with COLO 205 it was > 100 µM (inactive); in the test with LOX IMVI, > 100 µM (inactive); in the test with HCT-15, more than 100 µM; with MOLT-4, > 100 µM (inactive); with HCC 2998 it was > 100 µM (inactive). For the same compound, the GI50 in the test on NCI-H23, in the test on K562, with HOP-92, in the test on A498, in the test on UACC-62 and in the test with OVCAR-5 was > 100 µM (inactive) throughout. Besides, the GI50 in the test on CCRF-CEM, with OVCAR-4, with SR, in the test on SF-539 and in the test on U-251 was > 100 µM (inactive) throughout.

Consider `CC(N)Cc1ccc(Cl)c(Cl)c1` (configuration not stated), for which the GI50 in the test with SK-MEL-28 is 20.4 µM (inactive); in the test on COLO 205, 20.3 µM (inactive); with LOX IMVI, 27.2 µM (inactive); in the test with HCT-15 it was 30 µM; in the test with MOLT-4 it was 29.2 µM (inactive); in the test with HCC 2998, 17.3 µM (inactive). Further, the GI50 with NCI-H23 is > 95.1 µM (inactive); in the test with K562, 21.7 µM (inactive); in the test on HOP-92 it was 22.6 µM (inactive); in the test with A498 it was 45 µM (inactive); in the test with UACC-62 it was 22.8 µM (inactive); with OVCAR-5 it was 30.1 µM (inactive). The GI50 is 28.2 µM (inactive) with CCRF-CEM; 67.8 µM (inactive) in the test with OVCAR-4; 20.5 µM (inactive) with SR; 12.4 µM (inactive) in the test with SF-539; 42.7 µM (inactive) in the test with U-251.

Regarding `CC(=O)OCC(OC(C)=O)C(OC(C)=O)C(OC(C)=O)C(=O)CNn1c(-c2ccccc2)nc2ccc(Br)cc2c1=O` (configuration not stated), the GI50 is > 100 µM (inactive) in the test on SK-MEL-28; > 100 µM (inactive) with COLO 205; > 100 µM (inactive) in the test with LOX IMVI; more than 100 µM with HCT-15; 93.3 µM (inactive) in the test with MOLT-4; > 100 µM (inactive) in the test with NCI-H23. In addition, the GI50 was > 100 µM (inactive) in the test with K562; > 100 µM (inactive) in the test on A498; 83.4 µM (inactive) in the test on UACC-62; > 100 µM (inactive) with OVCAR-5; > 100 µM (inactive) with CCRF-CEM; > 100 µM (inactive) in the test on OVCAR-4. For the same compound, the GI50 in the test on SR, in the test with SF-539 and in the test with U-251 was > 100 µM (inactive) in each case.

`NC(=S)N/N=C1/C(=O)N(c2ccccc2)C(=O)C1C(=O)Nc1ccccc1` (configuration not stated): the GI50 was > 100 µM (inactive) with SK-MEL-28; > 100 µM (inactive) in the test on COLO 205; more than 100 µM in the test with HCT-15; > 100 µM (inactive) with MOLT-4; > 100 µM (inactive) in the test on HCC 2998; > 100 µM (inactive) with NCI-H23. In addition, the GI50 in the test on HOP-92, with A498, in the test on UACC-62, in the test with OVCAR-5, in the test on OVCAR-4 and with SR was > 100 µM (inactive) each time. The GI50 in the test with SF-539 and in the test with U-251 was > 100 µM (inactive) each time.

Take `O=C1CCCc2c(O)ccc(O)c21`: the GI50 with SK-MEL-28 was > 100 µM (inactive); in the test with COLO 205, > 100 µM (inactive); in the test on LOX IMVI, > 100 µM (inactive); with HCT-15 it was more than 100 µM; with MOLT-4, 27.9 µM (inactive); with HCC 2998, > 100 µM (inactive). Also, the GI50 is > 100 µM (inactive) in the test on NCI-H23; 35.9 µM (inactive) in the test with K562; > 100 µM (inactive) in the test on A498; > 100 µM (inactive) in the test with UACC-62; > 100 µM (inactive) in the test on OVCAR-5; 19.1 µM (inactive) with CCRF-CEM. Moreover, the GI50 is > 100 µM (inactive) with OVCAR-4, 28.3 µM (inactive) in the test on SR, > 100 µM (inactive) in the test with SF-539 and > 100 µM (inactive) with U-251.

Consider `COC(=O)c1c2c(c(-c3ccccc3)c3c1-c1nc(Cl)ccc1CC3)CCc1ccc(Cl)nc1-2`, for which the GI50 in the test with SK-MEL-28 was > 100 µM (inactive); in the test on COLO 205, > 100 µM (inactive); in the test on LOX IMVI, > 100 µM (inactive); in the test with HCT-15 it was more than 100 µM; in the test with MOLT-4 it was > 100 µM (inactive); in the test with HCC 2998, > 100 µM (inactive). Besides, the GI50 is > 100 µM (inactive) with NCI-H23; > 100 µM (inactive) in the test with K562; 42.2 µM (inactive) in the test with HOP-92; > 100 µM (inactive) with A498; 71.6 µM (inactive) with UACC-62; > 100 µM (inactive) in the test with OVCAR-5. In addition, the GI50 in the test on CCRF-CEM was > 100 µM (inactive); in the test with OVCAR-4, > 100 µM (inactive); in the test with SR, > 100 µM (inactive); in the test with SF-539, 45.5 µM (inactive); in the test with U-251, 59.6 µM (inactive).
